Values joined by “and” are separate entries in the source; they are usually repeats but may differ in a detail not shown here. Identical values can stand only once. Where a SMILES comes first, the peptide text is derived from it.
Experiments:
Type in all cases: biochemical
collagenase I (MMP-1) = test: Collagenase activity assay, collagen thin film (collagen type II substrate); conditions: for Collagenase (% Inhibition): collagen thin film, collagen type II, peptide concentration not given
Method: Collagenase activity was assayed by collagen thin film method using collagen type II as substrate. IC50 values were graphically determined from the inhibition curves, constructed on the basis of the in vitro results of collagenase assays. Results are the mean±SD of 3 separate experiments done in triplicates. (•), P-NT.II; (□), PIP [59-67] dimer; (Δ), PIP [59-67} monomer; (∇), LY 315920.
Collagenase activity assay: Using collagen thin film as the substrate, a quantitative method was established to measure the enzymatic activity of the MMPs (principally collagenase). Collagen type II (Sigma) solution (4 μL, 3 mg/mL in 0.012 N HCl) was added to each well of 96-well plates and precipitated by slowly increasing the pH with 4 μL of H2O and 8 μL of 0.012 N NaOH. The plate was dried at 23° C. for 24 hr, washed with H2O, and dried again at 23° C., resulting in a thin film containing 12 μg of collagen that was tightly bound to the bottom of the wells. Enzymatic reactions of the collagenase I (with and without peptide inhibitors) against the collagen films were carried out in quadruplicate at 24° C. for 16 h. The digested portion of the film was washed away, while the undigested portion was fixed for 3 h with 0.1% Coomassie brilliant blue R in 10% acetic acid and 45% methanol, and the wells washed and dried.

MMP-2 = molecular target: T1, MMP-2 (Homo sapiens, UniProt P08253); test: Gelatin zymography of human synovial fluid pre-incubated with inhibitors; conditions: 5 or 10 μM, pre-incubated 37° C. 1 h
T1 construct: from tissue; host or cells: human synovial fluid
T1 sequence (P08253 110-660): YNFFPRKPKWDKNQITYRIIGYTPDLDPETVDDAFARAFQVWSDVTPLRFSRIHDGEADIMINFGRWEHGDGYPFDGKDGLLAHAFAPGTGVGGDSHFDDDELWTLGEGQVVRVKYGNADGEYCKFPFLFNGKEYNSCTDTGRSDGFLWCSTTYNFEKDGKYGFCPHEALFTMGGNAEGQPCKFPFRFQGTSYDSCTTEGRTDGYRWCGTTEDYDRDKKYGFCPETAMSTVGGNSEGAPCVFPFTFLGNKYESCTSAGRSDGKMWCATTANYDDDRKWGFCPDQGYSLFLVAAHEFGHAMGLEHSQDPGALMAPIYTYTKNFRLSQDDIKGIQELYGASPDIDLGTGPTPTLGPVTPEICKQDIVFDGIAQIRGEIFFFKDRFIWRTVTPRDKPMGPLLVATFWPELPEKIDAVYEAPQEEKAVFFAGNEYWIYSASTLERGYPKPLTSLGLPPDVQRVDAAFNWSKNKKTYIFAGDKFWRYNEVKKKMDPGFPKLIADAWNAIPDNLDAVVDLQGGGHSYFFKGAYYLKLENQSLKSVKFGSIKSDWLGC
Method: (A) Samples containing human synovial fluid (5 μL) and 5 or 10 μM of peptides were pre-incubated at 37° C. for 1 h in Tris-HCl buffer prior to electrophoresis on 10% SDS-PAGE gel containing gelatin (0.1%). […] (B) The mean density (OD/mm2)±SD (n=3), representing MMP-2 activity, obtained by scanning the zymograms using the GS-710 calibrated imaging densitometer (Bio Rad, USA).
Gelatin zymography: human synovial fluid, purified human recombinant MMP-2 and -9 or APMA-activated concentrated culture supernatant samples (10 μL) was mixed (1:1) with Laemmli sample buffer, loaded on 4% acrylamide stacking gel and electrophoresed (120 V) at 4° C. on a 10% acrylamide-resolving minigel containing 0.1% gelatin. After electrophoresis for 1 h, the gels were soaked in 2.5% Triton X-100 on a shaker for 1 h, changing the solution after 30 min, to eliminate SDS. After overnight incubation in zymogen activation buffer [50 mM Tris-HCl, pH 7.5, containing 10 mM CaCl2 and 5 mM ZnCl2] at 37° C., the gels were rinsed in distilled water, and stained for 3 hr with […], after which clear bands of digested gelatin were clearly visible. The gels were briefly rinsed in distilled water and scanned by the Bio-Rad GS-710 Calibrated Imaging Densitometer.

[1] = molecular target: T2, purified human synovial sPLA2 (human Type IIA sPLA2) (Homo sapiens, UniProt P14555); test: sPLA2 inhibition, 3H-arachidonate-labelled E. coli membrane assay; conditions: fixed peptide concentration (5 μM); 3H-labelled E. coli membrane assay; read-out: % Inhibition (mean ± SD)
T2 construct: purchased Cayman Chemicals, USA
T2 sequence (P14555 21-144): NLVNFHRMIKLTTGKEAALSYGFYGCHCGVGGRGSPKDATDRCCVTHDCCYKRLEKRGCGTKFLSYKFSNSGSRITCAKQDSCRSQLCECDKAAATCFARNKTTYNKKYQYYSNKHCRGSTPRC
Method: In brief, [^3H] arachidonate-labeled E. coli membranes (0.005 mCi/mL; 5.8 μCi/μmol, NEN) were used as substrate, and 100 mM Tris-HCl—25 mM CaCl2, pH 7.5 solution as an assay buffer. The reaction mixture contained 20 μL of substrate, 0.85 pmole of purified human synovial sPLA2 (human Type IIA sPLA2, Cayman Chemicals, USA), and an increasing concentrations of the family of synthetic peptides derived from the sequence of PIP. The final volume of the reaction mixture was adjusted to 250 μL with an assay buffer. After incubation of the mixture (37° C., 1 h) and termination of the reaction with 750 μL of chilled PBS containing 1% BSA, microfuge tubes containing the samples were centrifuged (10,000 g at 4° C. for 15 min), and 500 μL aliquots of the supernatant taken to measure the amount of [^3H]-labeled arachidonate released from the E. coli membrane using liquid scintillation counting (Multipurpose Scintillation Counter LS 6500; Beckman, USA). As controls, sPLA2 was pre-incubated with the assay buffer alone. All samples, including controls, were performed in triplicate and plotted as the percentage inhibition relative to negative controls.
A sigmoid dose response curve was generated to allow calculation of the IC50 values. All samples were performed in triplicate. Results were analyzed by nonlinear regression with GraphPad Prism (version 2.01) and expressed as the percentage of inhibition relative to control values.

Structure (SMILES)	IC50 (collagenase I (MMP-1); collagen thin film method, FIG. 2, read-out: IC50 (mean±SD), collagenase I (MMP-1)) [µM]	Collagenase (% Inhibition) (collagenase I (MMP-1))	MMP-2 gelatinase activity (zymogram densitometry) vs control (MMP-2)	inhibition at 5 µM [1] [%]
CC[C@H](C)[C@H](NC(=O)[C@H](Cc1ccc(O)cc1)NC(=O)[C@@H](NC(=O)CNC(=O)[C@H](CC(=O)O)NC(=O)[C@H](Cc1c[nH]c2ccccc12)NC(=O)[C@@H](NC(=O)[C@H](Cc1c[nH]cn1)NC(=O)[C@@H](NC(=O)[C@H](CC(=O)O)NC(=O)[C@@H](NC(=O)[C@H](CCCNC(=N)N)NC(=O)CNC(=O)[C@@H](N)CC(C)C)C(C)C)[C@@H](C)CC)C(C)C)C(C)C)C(=O)N[C@@H](CCCNC(=N)N)C(=O)NCC(=O)N[C@@H](CCCNC(=N)N)C(=O)O [P-NT.II] (H-LGRVDIHVWDGVYIRGR-OH; N-terminus and C-terminus assumed)	8.43 ± 1.17	64.2 ± 5.6% and 64.2 ± 5.5%	did not show any significant difference from the control	–
CC[C@H](C)[C@H](NC(=O)[C@H](CC(=O)O)NC(=O)[C@@H](N)C(C)C)C(=O)N[C@@H](Cc1c[nH]cn1)C(=O)N[C@H](C(=O)N[C@@H](Cc1c[nH]c2ccccc12)C(=O)N[C@@H](CC(=O)O)C(=O)NCC(=O)N[C@H](C(=O)O)C(C)C)C(C)C [PIP [59-67] monomer] (H-VDIHVWDGV-OH; N-terminus and C-terminus assumed)	–	34.2 ± 4.7%	did not show any significant difference from the control	56.4 ± 3.21

— patent US20070037253A1, “Methods and compositions for treatment of arthritis and cancer” (priority 2003, published 2007)
